Square brackets hold non-standard residues; d marks the D form. Ends that are not written are not given here. pGlu = O=C1CC[C@@H](C(=O)O)N1
Test system: Clytia hemisphaerica planula larvae
Experiment: Metamorphosis (settlement) induction of planula larvae by synthetic GLW-amide neuropeptides
Format: in vivo
Details: for Metamorphosis efficiency, Average: peptide concentration not given
Description: (1) Culture planula larvae in MFSW containing penicillin and streptomycin. (2) Wash the surface of large glass slides (75 mm×50 mm) with warm tap water (40–50°C) and dry. Place them in 100 mm diameter petri dishes. (3) Dilute GLW-amide peptide stock solution (1–5 mM in distilled water, stored at −20°C) just prior to use in MFSW (4 ml/large slide). Recommended final concentration for GLW-amide-6 is 0.5 µM. (4) Using a plastic transfer pipette, carefully pour 0.1 ml/cm^2 or more peptide-containing sea water over the glass slide (4 ml for large glass slides, Fig. S1F). (5) Transfer 2.5–3-day-old planulae using a glass pipette. Disperse them as the settlement starts quickly. (6) Cover the dish with a lid to minimize the water evaporation and keep the dish undisturbed. (7) Planula will be firmly settled in several hours after peptide treatment. Transfer slides to polyp tanks, not later than 16 h after induction. (8) Start to feed smashed Artemia once the primary polyps have extended tentacles and open mouths. (9) Once the colony contains multiple gastrozooids, it can be fed normally with live Artemia nauplii.
Metamorphosis of planula larvae was induced by transferring them onto glass slides covered with at least 0.1 ml/cm^2 of sea water containing synthetic neuropeptides (Fig. 2E). A selection of synthetic amidated peptides derived from the neuropeptide precursors Che-PP2 and Che-PP11 ([Takeda et al., 2018]) were tested as metamorphosis inducers (Table 2) on 3-day-old planula larvae obtained by crossing Z13 (male) and Z11 (female) strains. Planula attach firmly onto the slide within a few hours (Fig. 1C, left). Metamorphosis efficiency was measured by successful settlement on the slide at 12 h, as the timing of stalk extension is variable, from several hours to days.

Substance | Planula settlement on the glass slide (0.3 µM peptide, settlement scored at 12 h, 5 repeats of 20 planulae (Fig. 7)) | Lowest concentration active in inducing metamorphosis (3-day-old planulae (Z13 x Z11) on glass slide in sea water containing peptide, settlement scored at 12 h, 5 repeats of 20 planulae (Fig. 7)) | Planula settlement efficiency (newly designed peptide, concentration not printed at this place (Fig. 7)) | Metamorphosis efficiency, Average (substrate agarose (2%), sample size 96–98, 4 repeats) | Metamorphosis efficiency, Average (substrate glass, sample size 90–99, 5 repeats) | Metamorphosis efficiency, Average (substrate plastic (polypropyrene), sample size 90–100, 5 repeats) | Planula settlement efficiency (previous conditions, 1 µM peptide, variable (Fig. 7))
[pGlu]QQAPKGLW-NH2 [GLW-amide-6, synthetic GLW-amide neuropeptide derived from precursor Che-PP11] | virtually all | 0.3 µM | ~100% | 96.5% | 98.6% | 99.9% | 
GNPPGLW-NH2 [GLW-amide-2, synthetic GLW-amide neuropeptide from Clytia transcriptome (precursor PP11), previously used to trigger metamorphosis] |  |  |  |  |  |  | ≥ 40%

Source: PMC7657476, “An improved whole life cycle culture protocol for the hydrozoan genetic model Clytia hemisphaerica” (Biology Open, 2020)
